According to PMC6220787 (Clinical Pharmacology in Drug Development, 2018):
Where two headings read alike, the source gives them in different places. Each block holds one compound with its values, some of them ahead of it.

Tests used:
[1] = cited from earlier work
[2] = type: in vivo, human
[3] = 60 mg of caffeine, single oral dose, healthy male subjects
[4] = analytical recovery test in plasma; cited from earlier work
[5] = Pharmacokinetics of chlorogenic acids; type: in vivo, human; conditions: for AUC0–4 h / tmax: analyte in blood after product 1, oral, healthy male subjects; for AUC0–4 h: mean (SD); for tmax: median (min, max)
[6] = healthy subjects, 412 μmol of CGA in 200 mL of coffee; cited from earlier work
[7] = after product 1, relative to 4‐CQA
[8] = after product 1, relative to 5‐CQA

Structure (SMILES): Cn1c(=O)c2c(ncn2C)n(C)c1=O [caffeine]
caffeine half‐life ([1]; adult men, dose of 4 mg/kg): 2.5 to 4.5 h
mean half‐life of caffeine in plasma ([1]; healthy individuals): about 5 hours
known half‐life of caffeine ([1]; stated as known): ~5 h
known tmax of caffeine ([1]; stated as known): approximately 60 minutes

GMR (90%CI) of AUC0–4 h of caffeine ([2]; geometric least‐squares mean ratio, product 1 to product 2): 98.33%
AUC(0-t) ([2]; male, human, serum, oral, 60 mg): 5600 ng·h/mL
Cmax ([2]; male, human, serum, po, 60 mg): 2090 ng/mL
tmax ([2]; male, human, serum, po, 60 mg): 37.8 min
Structure (SMILES): Cn1c(=O)c2c(ncn2C)n(C)c1=O [Product 2, caffeine]
adverse events [3]: no adverse events

AUC0–4 h [5]: 15.7 (10.4) ng·h/mL
tmax [5]: 1.50 (0.75, 2.50) h
Structure (SMILES): O=C(/C=C/c1ccc(O)c(O)c1)O[C@@H]1C[C@](O)(C(=O)O)C[C@@H](O)[C@H]1O [5‐CQA, 5‐O‐caffeoylquinic acid]
hydrolyzed into caffeic acid [4]: ~7%

AUC0–4 h greater than that of 4‐CQA [5, 7]: ~41%
concentration (Cmax) greater than that of 4‐CQA [5, 7]: 60%
AUC0–4 h greater than that of 5‐CQA [5, 8]: 42.5%
concentration (Cmax) greater than that of 5‐CQA [5, 8]: 58%
Structure (SMILES): O=C(/C=C/c1ccc(O)c(O)c1)O[C@@H]1C[C@](O)(C(=O)O)C[C@@H](O)[C@H]1O [3‐CQA, 3‐O‐caffeoylquinic acid]

Structure (SMILES): COc1cc(CCC(=O)O)ccc1O [dihydroferulic acid]
tmax in plasma [6]: 5.2 h

AUC0–4 h [5]: 16.1 (9.80) ng·h/mL
tmax [5]: 1.00 (0.75, 4.00) h
Structure (SMILES): O=C(/C=C/c1ccc(O)c(O)c1)O[C@H]1[C@H](O)C[C@](O)(C(=O)O)C[C@H]1O [4‐CQA, 4‐O‐caffeoylquinic acid]
